Source: US9676725B2, “S-crystal form of ivabradine hydrochloride, and preparation method and pharmaceutical composition thereof” (Beijing Lunarsun Pharmaceutical Co., LTD., priority 2014, dated 2017)

Legend:
Type in all cases: physicochemical
[1] = Humidity stability test (moisture and XRD); conditions: for Moisture: open, humidity 43.1±0.5%, room temperature (20° C.); for Change of crystal form on water absorption: stored in open condition under humidity 43.1±0.5%, water content up to 3%, hydrochloride
Experimental: The S crystal form of ivabradine hydrochloride as prepared in Example 2 was spread on watch glass to form a thin layer and placed in the upper part of a desiccator, and saturated potassium carbonate solution was placed in the lower part of the desiccator, the humidity in the desiccator was detected (humidity: 43.1±0.5%), conditions were controlled at room temperature (20° C.) and constant humidity, and samples were taken at 1 h, 8 h, 16 h, 24 h, 48 h, 96 h for moisture and XRD tests, and the results are shown in the following table.

[2] = High-temperature stability test at 60° C.; conditions: for Content / Properties / Relevant substances: Max single impurity / Relevant substances: Total impurities: 60° C.
Source text: Thus, the product could be stored stably in storehouse at room temperature.

[3] = Storage of crystal form at room temperature (crystal form transformation); conditions: 10 days storage at room temperature
Source text: Although many crystal forms have been reported in the documents, their stability and preparation methods are not satisfied. […] Delta crystal form contains acetonitrile which can hardly be removed, and it is difficult to distinguish from acetonitrile-containing crystal form. In addition, ivabradine hydrochloride as a hydrochloride is very easy to absorb moisture, while the change of water content may result in changes of many crystal forms, for example, the change between γd and γ, the change between βd and β.

SMILES: COc1cc2c(cc1OC)CC(=O)N(CCCN(C)C[C@H]1Cc3cc(OC)c(OC)cc31)CC2.Cl [3-{3-[{[(7S)-3,4-dimethoxybicyclo[4.2.0]octa-1,3,5-trien-7-yl]-methyl}(methyl)-amino]propyl}-7,8-dimethoxy-1,3,4,5-tetrahydro-2H-3-benzazepin-2-one hydrochloride]
- Moisture ([1]; 1 h): 0.46%
- Moisture ([1]; 8 h): 0.55%
- Moisture ([1]; 16 h): 0.60%
- Moisture ([1]; 24 h): 0.82%
- Moisture ([1]; 48 h): 1.4%
- Moisture ([1]; 96 h): 3.0%
- Change of crystal form on water absorption ([1]; listed as S crystal form): does not change
- Change of crystal form on water absorption ([1]; listed as the product): did not change
- Content ([2]; the 0th day): 99.50%
- Properties ([2]; the 0th day): White
- Relevant substances: Max single impurity ([2]; the 0th day): 0.04%
- Relevant substances: Total impurities ([2]; the 0th day): 0.19%
- Content ([2]; the 5th day): 99.40%
- Properties ([2]; the 5th day): White
- Relevant substances: Max single impurity ([2]; the 5th day): 0.05%
- Relevant substances: Total impurities ([2]; the 5th day): 0.20%
- Content ([2]; the 10th day): 99.50%
- Properties ([2]; the 10th day): White
- Relevant substances: Max single impurity ([2]; the 10th day): 0.05%
- Relevant substances: Total impurities ([2]; the 10th day): 0.20%
- Change of indicators, e.g. purity, versus the 0th day ([2]; stored at 60° C. for 10 days): did not change significantly
- Stability of crystal form ([2]; stored at 60° C. for 10 days): very stable

SMILES: COc1cc2c(cc1OC)CC(=O)N(CCCN(C)C[C@H]1Cc3cc(OC)c(OC)cc31)CC2.Cl [δd crystal form, 3-{3-[{[(7S)-3,4-dimethoxybicyclo[4.2.0]octa-1,3,5-trien-7-yl]-methyl}(methyl)-amino]propyl}-7,8-dimethoxy-1,3,4,5-tetrahydro-2H-3-benzazepin-2-one hydrochloride]
- Crystal form transformation on storage [3]: most of the δd crystal form will transform into α crystal form
